Read-outs that look alike come from different tables or passages of the source.
Tests used:
microglial BV2 cells = test: LDH release cell viability assay; type: cell-based, murine; settings: 0.5nM to 50 μM, 24h
Description: (§1) BV2 cells were harvested and counted before stimulation. The cells were untreated (control), vehicle-treated (DMSO), or treated with increasing concentrations (0.5nM, 5nM, 50nM, 0.5 μM, 5μM and 50 μM) of LDDN-0003499, LDDN-0075935, LDDN-0125694 or LDDN-0127164 for 24h to assess toxicity and 1 hour to assess effects on basal kinase activity. For secretion analyses, cells were pretreated with drugs for 1 hour prior to stimulation with 50nM Aβ (overnight) or 25ng/mL LPS (overnight) in the presence of the drugs in serum free DMEM/F12. Media were collected for ELISA analysis and for LDH release viability assays. For signaling analyses, cells were pretreated with drugs for 1 hour prior to 5 minute stimulation with 1μM Aβ 1–42. […] Protein concentrations were determined using the Bradford method.
For the lactate dehydrogenase release (LDH) assay, media following the 24 hour cell stimulations were transferred onto a new 96-well plate and LDH concentrations assayed according to manufacturer instructions (Promega Corporation, Madison, WI). Background absorbance was subtracted from each condition. All absorbance values for the LDH assay were averaged and plotted ±SD.

[1] = test system: total protein phosphotyrosine levels in BV2 cells; test: Total protein phosphotyrosine western blot (4G10), basal; type: cell-based, murine; settings: 0.5nM to 50 μM, 1h, vs vehicle
Description: as §1
(§2) Cell lysates were resolved by SDS-PAGE on 10% polyacrylamide gels and transferred to PVDF membranes. […] Blots were washed followed by incubation with HRP-conjugated secondary antibodies and antibody binding was detected via enhanced chemiluminescence (GE Healthcare, Piscataway, NJ). Western blots were quantified using Adobe Photoshop software. […]

Lyn [2] = molecular target: T1, Lyn (Mus musculus, UniProt P25911); test: Basal pLyn (Tyr 396) western blot in BV2 cells; type: cell-based, murine; settings: 0.5nM to 50 μM, 1h
T1 construct: endogenous in cells; host or cells: BV2 murine microglial cell line
T1 sequence (P25911 whole entry): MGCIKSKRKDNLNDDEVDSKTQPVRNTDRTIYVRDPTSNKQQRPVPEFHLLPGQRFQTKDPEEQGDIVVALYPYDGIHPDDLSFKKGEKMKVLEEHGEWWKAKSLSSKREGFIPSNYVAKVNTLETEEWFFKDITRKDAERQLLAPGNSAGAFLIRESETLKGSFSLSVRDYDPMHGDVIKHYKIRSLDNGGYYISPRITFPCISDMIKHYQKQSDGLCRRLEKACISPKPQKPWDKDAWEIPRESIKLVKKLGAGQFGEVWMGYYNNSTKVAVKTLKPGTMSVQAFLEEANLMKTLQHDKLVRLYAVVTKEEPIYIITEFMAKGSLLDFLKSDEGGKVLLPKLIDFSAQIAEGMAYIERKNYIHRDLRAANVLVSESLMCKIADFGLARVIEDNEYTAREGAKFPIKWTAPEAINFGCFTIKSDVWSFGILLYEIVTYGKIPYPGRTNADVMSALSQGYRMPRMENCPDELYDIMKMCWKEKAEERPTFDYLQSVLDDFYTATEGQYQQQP
Description: as §1, §2

Src [3] = molecular target: T2, Src (Mus musculus, UniProt P05480); test: Basal pSrc (Tyr 416) western blot in BV2 cells; type: cell-based, murine; settings: 0.5nM to 50 μM, 1h
T2 construct: endogenous in cells; host or cells: BV2 murine microglial cell line
T2 sequence (P05480 whole entry): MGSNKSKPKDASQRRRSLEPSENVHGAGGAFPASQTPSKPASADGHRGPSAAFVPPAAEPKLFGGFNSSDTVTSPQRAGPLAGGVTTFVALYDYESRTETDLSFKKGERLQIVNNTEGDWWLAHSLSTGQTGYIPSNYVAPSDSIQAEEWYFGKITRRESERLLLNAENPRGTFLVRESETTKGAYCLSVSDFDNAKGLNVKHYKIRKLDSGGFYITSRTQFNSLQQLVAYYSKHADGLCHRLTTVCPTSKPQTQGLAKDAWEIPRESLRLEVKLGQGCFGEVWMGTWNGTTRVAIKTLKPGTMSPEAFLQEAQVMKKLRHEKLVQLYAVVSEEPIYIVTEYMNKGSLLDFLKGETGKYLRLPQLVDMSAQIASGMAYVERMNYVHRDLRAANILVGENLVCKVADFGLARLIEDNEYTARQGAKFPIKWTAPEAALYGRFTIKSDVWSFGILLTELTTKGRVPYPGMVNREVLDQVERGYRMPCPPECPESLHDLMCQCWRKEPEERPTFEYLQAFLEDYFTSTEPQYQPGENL
Description: as §1, §2

ERK [4] = test: Basal pERK western blot in BV2 cells; type: cell-based, murine; settings: 0.5nM to 50 μM, 1h
Description: as §1, §2

JNK = test: Basal pJNK western blot in BV2 cells; type: cell-based, murine; settings: 0.5nM to 50 μM, 1h
Description: as §1, §2

p38 = test: Basal p-p38 western blot in BV2 cells; type: cell-based, murine; settings: 0.5nM to 50 μM, 1h
Description: as §1, §2

Lyn [5] = molecular target: T1, Lyn; test: Aβ-stimulated pLyn western blot in BV2 cells; type: cell-based, murine
Description: (§3) BV2 cells were harvested and counted before stimulation. The cells were untreated (control), vehicle-treated (DMSO), or treated with increasing concentrations (0.5nM, 5nM, 50nM, 0.5 μM, 5μM and 50 μM) of […]-0125694 or LDDN-0127164 for 24h to assess toxicity and 1 hour to assess effects on basal kinase activity. […] Media were collected for ELISA analysis and for LDH release viability assays. For signaling analyses, cells were pretreated with drugs for 1 hour prior to 5 minute stimulation with 1μM Aβ 1-42. […] Protein concentrations were determined using the Bradford method. Cell lysates were resolved by SDS-PAGE on 10% polyacrylamide gels and transferred to PVDF membranes. Western blots were blocked with 3% bovine serum albumin and incubated in anti-phospho-[…][…]), anti-pSrc ([…]), anti-pERK, anti-pLyn ([…]), anti-pJNK, and anti-phospho-p38 primary antibodies with anti-α-tubulin, Src, ERK2, Lyn, JNK, and p38 antibodies used as the respective loading controls. Blots were washed followed by incubation with HRP-conjugated secondary antibodies and antibody binding was detected via enhanced chemiluminescence (GE Healthcare, Piscataway, NJ). Western blots were quantified using Adobe Photoshop software. Optical densities of bands were normalized using their appropriate loading controls and averaged (±) SD.

Src [6] = molecular target: T2, Src; test: Aβ-stimulated pSrc western blot in BV2 cells; type: cell-based, murine; settings: 1h pretreatment, 1 μM Aβ 1-42 for 5 minutes
Description: as §3

ERK [7] = test: Aβ-stimulated pERK western blot in BV2 cells; type: cell-based, murine; settings: 1h pretreatment, 1 μM Aβ
Description: as §3

TNF-α secretion [8] = test: Aβ-stimulated TNF-α secretion ELISA in BV2 cells; type: cell-based, murine; settings: 1h pretreatment, 50nM Aβ 1-42, 24h
Description: as §1
(§4) Media were collected from BV2 cells following 24 hour stimulations for ELISA analyses. Levels of mouse TNF-α, IL-6, and IL-1β in the media were determined using commercially available ELISA kits according to the manufacturer’s protocol (R&D Systems).

IL-6 secretion = test: Aβ-stimulated IL-6 secretion ELISA in BV2 cells; type: cell-based, murine; settings: 1h pretreatment, 50nM Aβ 1-42, 24h
Description: as §1, §4

TNF-α secretion [9] = test: LPS-stimulated TNF-α secretion ELISA in BV2 cells; type: cell-based, murine; settings: 1h pretreatment, 25ng/ml LPS, 24h
Description: as §1, §4

[10] = Microsomal stability / intrinsic clearance assay, human; type: in vitro ADME; settings: liver microsomes
Description: (§5) Briefly, the compound was incubated with human or mouse microsomes in the presence or absence of NADPH. […] Data were converted to percent remaining by dividing by the time zero concentration value. In vitro half-life was determined based on the slope of the (first-order) decay curve and this value was converted to intrinsic clearance (CLint). […] Briefly, Caco-2 cells were plated in Millipore 96-well transwell plates and allowed to differentiate for 21 days to form polarized, epithelial monolayers. For apical to basolateral (A→B) permeability, the compound was added to the apical (A) side and amount permeation determined on the basolateral (B) side. For B→A permeability, the compound was added on the basolateral (B) side. Upon completion of the incubation (2 hr), the receiver side buffer was removed for analysis by LC-MS/MS. From the samples, apparent permeability rate coefficients (Papp values) and efflux ratios were determined for the compound.

[11] = Microsomal stability / intrinsic clearance assay, mouse; type: in vitro ADME; settings: liver microsomes
Description: as §5

[12] = Caco-2 bidirectional permeability assay; type: in vitro ADME; settings: human
Description: as §5

Caco-2 cells = test: Caco-2 bidirectional permeability assay; type: in vitro ADME; settings: Caco-2, 10 μM, 2 hr
Description: as §5

[13] = read-out: NADPH-Dependent CLint

## COc1cc2ncnc(Nc3ccc(Cl)cc3Cl)c2cc1OC [LDDN-0003499]
Microglial BV2 cells
  toxicity to microglial BV2 cells (LDH release, cell viability): not toxic
[1]
  total protein phosphotyrosine levels: significantly decrease the total protein phosphotyrosine levels in a dose-dependent manner
Lyn [2]
  active, phosphorylated Lyn (pLyn) protein levels: dose-dependent decrease
Src [3]
  active, phosphorylated Src (pSrc) protein levels: dose-dependent decrease
ERK [4]
  phosphorylated ERK (pERK) protein levels: no ability to alter
JNK
  phosphorylated JNK (pJNK) protein levels: no ability to alter
p38
  phosphorylated p38 (p-p38) protein levels: no ability to alter
Lyn [5]; 50nM (pLyn) vs 500nM (pSrc)
  selectivity for Lyn versus Src in the Aβ stimulation paradigm: tenfold
Lyn [5]; 1h pretreatment, 1 μM Aβ 1-42 for 5 minutes
  concentration sufficient to significantly attenuate the Aβ stimulated increase in pLyn levels: 50 nM
Src [6]
  concentration required to attenuate the Aβ stimulated increase in pSrc: 500 nM
ERK [7]
  pERK levels following Aβ stimulation: no inhibition
TNF-α secretion [8]
  Aβ stimulated TNF-α secretion: dose-dependently inhibited
  concentration at which inhibition of Aβ stimulated TNF-α secretion begins: 500 nM
IL-6 secretion
  Aβ stimulated IL-6 secretion: dose-dependently inhibited
TNF-α secretion [9]
  LPS stimulated TNF-α secretion: attenuated
[10]; read-out: NADPH-Depend. T1/2
  half-life at 1 μM: 14.1 min
[10]; [13]
  microsomal CLint at 1 μM: 98.4 µL/min/mg
[10]; read-out: NADPH-Free CLint
  microsomal CLint at 1 μM: 21.2 µL/min/mg
[10]; read-out: NADPH-Free T1/2
  half-life at 1 μM: 65 min
[11]; read-out: NADPH-Depend. T1/2
  half-life at 1 μM: 16.6 min
[11]; [13]
  microsomal CLint at 1 μM: 83.3 µL/min/mg
[11]; read-out: NADPH-Free CLint
  microsomal CLint at 1 μM: 15.8 µL/min/mg
[11]; read-out: NADPH-Free T1/2
  half-life at 1 μM: 88 min
[12]; Caco-2, 10 μM, 2 hr, read-out: Efflux Ratio Papp(B→A) / Papp(A→B)
  efflux ratio at 2 hr, 10 μM: 0.85
[12]; Caco-2, 10 μM, 2 hr, read-out: mean A→B Papp
  Papp A→B at 2 hr, 10 μM: 19 ×10⁻⁶ cm/s
[12]; Caco-2, 10 μM, 2 hr, read-out: mean B→A Papp
  Papp B→A at 2 hr, 10 μM: 16.2 ×10⁻⁶ cm/s
Caco-2 cells
  Caco-2 permeability, comment: high permeability

## O=C(Nc1cc(Cl)ccc1Cl)c1noc2c1CCC2 [LDDN-0075935]
Microglial BV2 cells
  toxicity to microglial BV2 cells (LDH release, cell viability): not toxic
[1]
  total protein phosphotyrosine levels: no effect
Lyn [2]
  active, phosphorylated Lyn (pLyn) protein levels: not able to attenuate
Src [3]
  active, phosphorylated Src (pSrc) protein levels: not able to attenuate
ERK [4]
  phosphorylated ERK (pERK) protein levels: stimulated increased pERK protein levels at the highest drug concentration
JNK
  phosphorylated JNK (pJNK) protein levels: did not attenuate
p38
  phosphorylated p38 (p-p38) protein levels: did not attenuate

## CC(=O)CC(c1ccccc1)c1c(O)c2ccccc2oc1=O (stereo not drawn) [warfarin, reference compound]
[12]; Caco-2
  Papp A→B at 2 hr, 10 μM: 27.1 ×10⁻⁶ cm/s
  Papp B→A at 2 hr, 10 μM: 10.4 ×10⁻⁶ cm/s
